Data taken from patent publication US8759400B2, “Histone deacetylase inhibitors for enhancing activity of antifungal agents” (MethylGene Inc., priority 2005, dated 2014).
Where two headings read alike, the source gives them in different places.

What was measured:
[1] = system: HDAC; experiment: HDAC inhibitory activity in fungal protoplasts (Fluor-de-Lys); assay type: cell-based, Candida albicans; conditions: C. albicans protoplasts
Procedure: (§1) Protoplasts of C. albicans and C. glabrata are prepared by the […] method of Franzusoff et al.

[2] = system: C. glabrata (ATCC 90030); experiment: MIC80 and checkerboard synergy with antifungal agents; assay type: cell-based, Candida glabrata
[3] = system: HDAC; experiment: HDAC inhibitory activity in fungal protoplasts (Fluor-de-Lys); assay type: cell-based, Candida glabrata; conditions: C. glabrata protoplasts
Procedure: as §1

[4] = system: C. albicans (ATCC 90028); experiment: MIC80 and checkerboard synergy with antifungal agents; assay type: cell-based, Candida albicans
[5] = system: HDAC; experiment: HDAC inhibitory activity in fungal protoplasts (Boc-Lys(Ac)-AMC); assay type: cell-based, Aspergillus fumigatus; conditions: A. fumigatus protoplasts
[6] = system: HMEC; conditions: human
[7] = system: A. fumigatus ATCC 1022; experiment: MIC80 and checkerboard synergy, broth microdilution (NCCLS M38-A); assay type: cell-based, Aspergillus fumigatus; conditions: for conc. for 4-fold synergy: 48 hours
[8] = system: HMEC; experiment: Mammalian cytotoxicity, MTT reduction
[9] = system: C. glabrata (ATCC 90030); assay type: cell-based; conditions: agar plates containing 4×MIC of the relevant azole alone
[10] = system: C. dubliniensis; experiment: Clinical isolates, CLSI M27-A2 broth microdilution and checkerboard; assay type: cell-based; conditions: Candida dubliniensis
[11] = Candida albicans, ATCC90028, compound alone, C. albicans (ATCC 90028), read-out: MIC80
[12] = with ketoconazole, A. fumigatus ATCC 1022
[13] = Nakaseomyces glabratus, ATCC90030, compound alone, C. glabrata (ATCC 90030), read-out: MIC80
[14] = Aspergillus fumigatus, ATCC1022, compound alone, A. fumigatus ATCC 1022, read-out: MIC80
[15] = with fluconazole, A. fumigatus ATCC 1022
[16] = with itraconazole, A. fumigatus ATCC 1022
[17] = with voriconazole, A. fumigatus (ATCC 1022)

## O=C(NO)c1ccc(CN2c3ccccc3NC(=O)[C@H]2Cc2cccc(C(F)(F)F)c2)cc1 [Cpd 23]
[1]
  HDAC inhibition IC50: ~0.6 µg/mL

## CC(Cc1ccc(C(C)(C)C)cc1)CN1C[C@@H](C)O[C@@H](C)C1 (some centres unmarked) [Fenpropimorph, fenpropimorph, reference compound]
[2]; Nakaseomyces glabratus, ATCC90030, fenpropimorph alone, C. glabrata, read-out: Fenpropimorph MIC
  MIC: 6.25 µg/mL

## O=C(/C=C/c1ccc(CN(CCO)CCc2c[nH]c3ccccc23)cc1)NO [LAQ-824, reference compound]
[3]
  HDAC inhibition IC50: 0.01 µg/mL
[4]; [11]
  MIC: > 128 µg/mL
[5]
  HDAC inhibition IC50: 0.01 µg/mL
[6]
  MTT HMEC: 0.75 µM
[7]; Aspergillus fumigatus, ATCC1022, 48 h, compound alone, A. fumigatus ATCC 1022, read-out: MIC80
  MIC: > 128 µg/mL
[7]; [12]
  conc. for 4-fold synergy: >128 µg/mL
[1]
  HDAC inhibition IC50: 0.01 µg/mL
[2]; [13]
  MIC: > 64 µg/mL

## Nc1ccccc1NC(=O)c1ccc(CNC(=O)OCc2cccnc2)cc1 [MS275, reference compound]
[3]
  HDAC inhibition IC50: >20 µg/mL
[4]; [11]
  MIC80: > 128 µg/mL
[5]
  HDAC inhibition IC50: >40 µg/mL
[6]
  MTT HMEC: 22 µM
[7]; [14]
  MIC80: > 128 µg/mL
[7]; [12]
  conc. for 4-fold synergy: >128 µg/mL
[1]
  HDAC inhibition IC50: >20 µg/mL
[2]; [13]
  MIC80: > 64 µg/mL

## C[C@@H]([C@H](N)C(=O)N[C@H](C(=O)O)[C@H]1O[C@@H](n2ccc(=O)[nH]c2=O)[C@H](O)[C@@H]1O)[C@H](O)c1ccc(O)cn1 [Nikkomycin, nikkomycin, reference compound]
[4]; Candida albicans, ATCC90028, read-out: Nikkomycin MIC
  MIC: 100 µg/mL

## O=C(CCCCCCC(=O)Nc1ccccc1)NO [SAHA, suberoylanilide hydroxamic acid, reference compound]
[4]; [11]
  MIC80: > 128 µg/mL
[8]
  MTT HMEC: 18 µM
[2]; [13]
  MIC80: > 64 µg/mL

## CC(/C=C/C(=O)NO)=C\[C@@H](C)C(=O)c1ccc(N(C)C)cc1 [TSA, trichostatin A, reference compound]
[3]
  HDAC inhibition IC50: ~0.06 µg/mL
[4]; [11]
  MIC80: > 128 µg/mL
[5]
  HDAC inhibition IC50: 0.01 µg/mL
[7]; [14]
  MIC80: 64 to 128 µg/mL
[7]; [12]
  conc. for 4-fold synergy: 4 µg/mL
[1]
  HDAC inhibition IC50: 0.07 µg/mL
[8]
  MTT HMEC: 1 µM
[2]; [13]
  MIC80: 64 µg/mL

## CN(C/C=C/C#CC(C)(C)C)Cc1cccc2ccccc12 [Terbinafine, terbinafine, reference compound]
[4]; Candida albicans, ATCC90028, terbinafine alone, C. albicans, read-out: Terbinafine MIC
  MIC: 0.39 µg/mL

## CC(/C=C/C(=O)NO)=C\C(C)Cc1ccc(N(C)C)cc1 (centres unmarked) [drawing 125]
[8]
  MTT HMEC: 44 µM

## CC(/C=C/C(=O)NO)=C\C(C)Cc1ccc(N(C)C)cc1 (centres unmarked) [drawing 131]
[8]
  MTT HMEC: 44 µM
[2]; with itraconazole, C. glabrata (ATCC 90030), 24 hr
  conc. for 4-fold synergy (24 hr): 1.56 (24 hr) μg/ml

## CC(/C=C/C(=O)NO)=C\C(C)Cc1ccc(N(C)C)cc1 (centres unmarked) [drawing 137]
[8]
  MTT HMEC: 44 µM

## CC(/C=C/C(=O)NO)=C\C(C)Cc1ccc(N(C)C)cc1 (centres unmarked) [drawing 143]
[8]; Table 9 head
  MTT HMEC: 4.4e-05 µM

## O=C(Cc1ccc(CCCCc2ccccc2)cc1)NO [drawing 144]
[8]; Table 9 head
  MTT HMEC: 1.3e-05 µM

## O=C(Cc1ccc(CCCc2ccccc2)cc1)NO [drawing 145]
[8]; Table 9 head
  MTT HMEC: 4.7e-05 µM

## O=C(CCc1ccc(CCCc2ccccc2)cc1)NO [drawing 146]
[8]; Table 9 head
  MTT HMEC: 4e-05 µM

## O=C(CCc1ccc(CCc2ccccc2)cc1)NO [drawing 147]
[8]; Table 9 head
  MTT HMEC: 1e-05 µM

## CC(/C=C/C(=O)NO)=C\C(C)Cc1ccc(N(C)C)cc1 (centres unmarked) [drawing 148]
[5]
  HDAC inhibition IC50: 2.0 µg/mL
[7]; [15]
  conc. for 4-fold synergy: 0.25 µg/mL
[8]
  MTT HMEC: 44 µM

## O=C(Cc1ccc(CCCCc2ccccc2)cc1)NO [drawing 149]
[7]; [15]
  conc. for 4-fold synergy: >1 µg/mL

## CC(/C=C/C(=O)NO)=C\C(C)Cc1ccc(N(C)C)cc1 (centres unmarked) [drawing 150]
[5]
  HDAC inhibition IC50: 2.0 µg/mL
[7]; [16]
  conc. for 4-fold synergy: 0.25 µg/mL
[8]
  MTT HMEC: 44 µM

## O=C(Cc1ccc(CCCCc2ccccc2)cc1)NO [drawing 151]
[7]; [16]
  conc. for 4-fold synergy: >1 µg/mL

## CC(/C=C/C(=O)NO)=C\C(C)Cc1ccc(N(C)C)cc1 (centres unmarked) [drawing 152]
[5]
  HDAC inhibition IC50: 2.0 µg/mL
[7]; [17]
  conc. for 4-fold synergy: 0.25 µg/mL
[8]
  MTT HMEC: 44 µM

## O=C(Cc1ccc(CCCCc2ccccc2)cc1)NO [drawing 153]
[7]; [17]
  conc. for 4-fold synergy: 1 µg/mL

## OC(Cn1cncn1)(Cn1cncn1)c1ccc(F)cc1F [fluconazole]
[9]
  frequency of resistant C. glabrata mutants: 5×10^−6
[10]; 48 h, read-out: FLU MIC
  MIC: 0.12 µg/mL

## C[C@@H](c1ncncc1F)[C@](O)(Cn1cncn1)c1ccc(F)cc1F [voriconazole, reference compound]
[10]; voriconazole alone, C. dubliniensis clinical isolates, CLSI M27-A2, 48 hour endpoint, read-out: VOR MIC
  MIC: 0.007 µg/mL

## Oxamflatin [reference compound]
[3]
  HDAC inhibition IC50: ~7 µg/mL
[4]; compound alone, C. albicans (ATCC 90028)
  MIC80: >64 µg/mL
[4]; with ketoconazole, C. albicans (ATCC 90028), 48 hours
  conc. for 4-fold synergy: 16 µg/mL
[5]
  HDAC inhibition IC50: 5.0 µg/mL
[7]; compound alone, A. fumigatus ATCC 1022
  MIC80: >128 µg/mL
[7]; [12]
  conc. for 4-fold synergy: >128 µg/mL
[1]
  HDAC inhibition IC50: >20 µg/mL
[8]
  MTT HMEC: 2 µM
[2]; compound alone, C. glabrata (ATCC 90030)
  MIC80: >64 µg/mL
[2]; with ketoconazole, C. glabrata (ATCC 90030), 48 hours
  conc. for 4-fold synergy: 128 µg/mL
